Test results as given in US11964943B2, “3,5-diarylidenyl-n-substituted-piperid-4-one-derived inhibitors of Stat3 pathway activity and uses thereof” (priority 2017, dated 2024).
In brackets after ≈: the same amount, converted by molar mass. Entries after “also recorded” stand apart in the source; their conditions may differ. Where two headings read alike, the source gives them in different places.

Experiments:
B16 (melanoma) cells = assay: MTT cytotoxicity assay, B16 cells
DU145 cells [1] = assay: SRB growth inhibition and combination index with cisplatin, DU145; type: cell-based
Method: The affected fractions were calculated from the SRB or MTT assay absorbance values and were registered to derive the respective CI values and isobolograms. A CI value of less than 1 (one) indicates synergy.
The SRB assay was used to assess cell growth inhibition by IE-8 alone and in combination with cisplatin. […] For combination studies drug treatments were sequential with IE-8 applied first followed by cisplatin for 1 h. […] Absorbance was read at 540 nm and results were normalized to untreated controls. For analysis of GC50 values and statistical significance, non-linear regression analysis with a comparison of fits was performed with the GraphPad Prism 6.0 software.
Drug Combination studies. Sulforhodamine B (SRB) Cell Growth Inhibition Assay. The SRB assay was used to assess cell growth inhibition by 8 h alone and in combination with cisplatin. […] For combination studies drug treatments were sequential with 8 h applied first followed by cisplatin for 1 h. […] Absorbance was read at 540 nm and results were normalized to untreated controls. For analysis of GC50 values and statistical significance, non-linear regression analysis with a comparison of fits was performed with the GraphPad Prism 6.0 software.

[2] = tested on: MDA-MB-435 cancer cell line; assay: SRB antiproliferative assay, MDA-MB-435; type: cell-based, human
L1210 (lymphoma) cells = assay: MTT cytotoxicity assay, L1210 cells
pStat3^Tyr705 = assay: Immunoblotting of phosphorylated Stat3 in cancer cells; type: cell-based, human; conditions: for persistence of pStat3 inhibition post treatment: DU145 and A549, after 18 h treatment and drug removal; for inhibition of Stat3 tyrosine (705) phosphorylation (pStat3): DU145 and A549 cells with constitutively active Stat3, 18 h; for concentrations at which pSTAT3 is inhibited: cells with persistent Stat3 activation
Method: (§1) Whole cell lysates were prepared by incubation of harvested, trypsinised cells with CelLytic™ lysis buffer (Sigma-Aldrich) supplemented with 1× protease and 1× phosphatase inhibitors (Roche). Protein quantification was carried out using a protein assay kit (Bio-Rad). 40 μg of the lysates were denatured by heating for 5 min at 95° C. in sample buffer containing 100 mM Tris-Cl (pH 6.8), 4% SDS, 10% 2-mercaptoethanol, 20% glycerol, and 0.02% bromophenol blue. Precision Plus Protein Dual colour standards (Bio-Rad) were used as a molecular weight reference. For the detection of STAT3, pSTAT3, α/β tubulin, cleaved PARP, Bcl-2, Bcl-xL, FANCD2, BRCA1, EME1 and MUS81, proteins were separated on a NuPAGE 7% Tris-acetate gel (Life Technologies) and subsequently transferred to polyvinylidene difluoride membranes (Immobilon®-P transfer membrane; Millipore). […] Membranes were blocked for 1 h at ambient temperature in a blocking buffer containing 5% w/v Bovine Serum Albumin (BSA; Sigma-Aldrich) in 1×TBS, 0.1% Tween-20. All proteins were identified by incubation in a 1:1000 dilution of the respective polyclonal antibodies (Cell signaling) in blocking buffer overnight at 4° C. and subsequent incubation for 1 h with an anti-rabbit or anti-mouse secondary antibody (Cell signalling) at a dilution of 1:1000. The α/β tubulin (1:2000; Cell Signaling) and the anti-phospho-histone H2AX Antibody (1:500; Millipore) were used in the denoted dilutions. Antibody binding was visualized by enhanced chemiluminescence (Amersham) on autoradiography film (Kodak-X-Omat). Alternatively Images were captured by the GelDoc-It Imaging System Fusion Fx7 (Vilber Lourmat, Germany).
as §1, with “Immunoblotting. Whole” for “Whole”, “CelLytic™ M” for “CelLytic™”, “pSTAT3, a/0” for “pSTAT3, α/β”, “in 1×TBS” for “in 1×TBS,”, “(Cell signalling)” for “(Cell signaling)”

[3] = Aqueous solubility (MultiScreen Solubility Filter Plate, shake-flask based)
Method: Aqueous solubility of Compounds of the Invention was measured with a modified version of the MultiScreen Solubility Filter Plate protocol (Millipore). This assay was based on the shake-flask equilibrium method and utilizes UV-Vis spectroscopy to quantify the unknown samples. The assay was conducted at room temperature at pH 7.4. […] Compound of the Invention was dissolved in DMSO, and the final DMSO concentration was 5% (v/v). Each sample was analyzed by UV-Vis spectroscopy at 10 nm increments from 260-600 nm to determine the optimal wavelength for detection and construct standard curves. […] A 4:1 mixture of supernatant to acetonitrile was added to a 96-well acrylic plate and analyzed by UV-Vis spectroscopy.
Aqueous solubility was measured with a modified version of the MultiScreen Solubility Filter Plate protocol (Millipore). This assay is based on the shake-flask equilibrium method and utilizes UV-Vis spectroscopy to quantify the unknown samples. The assay is conducted at room temperature at pH 7.4. […] Each compound was dissolved in DMSO, and the final DMSO concentration was 5% (v/v). Each sample was analyzed by UV-Vis spectroscopy at 10 nm increments from 260-600 nm to determine the optimal wavelength for detection and construct standard curves. […] A 4:1 mixture of supernatant to acetonitrile was added to a 96-well acrylic plate and analyzed by UV-Vis spectroscopy.

[4] = target: Stat3 binding to hSIE DNA probe (Homo sapiens, UniProt P40763); assay: Electrophoretic mobility shift assay (EMSA); conditions: DU145 nuclear extracts
Stat3 binding to hSIE DNA probe, sequence (P40763 whole entry): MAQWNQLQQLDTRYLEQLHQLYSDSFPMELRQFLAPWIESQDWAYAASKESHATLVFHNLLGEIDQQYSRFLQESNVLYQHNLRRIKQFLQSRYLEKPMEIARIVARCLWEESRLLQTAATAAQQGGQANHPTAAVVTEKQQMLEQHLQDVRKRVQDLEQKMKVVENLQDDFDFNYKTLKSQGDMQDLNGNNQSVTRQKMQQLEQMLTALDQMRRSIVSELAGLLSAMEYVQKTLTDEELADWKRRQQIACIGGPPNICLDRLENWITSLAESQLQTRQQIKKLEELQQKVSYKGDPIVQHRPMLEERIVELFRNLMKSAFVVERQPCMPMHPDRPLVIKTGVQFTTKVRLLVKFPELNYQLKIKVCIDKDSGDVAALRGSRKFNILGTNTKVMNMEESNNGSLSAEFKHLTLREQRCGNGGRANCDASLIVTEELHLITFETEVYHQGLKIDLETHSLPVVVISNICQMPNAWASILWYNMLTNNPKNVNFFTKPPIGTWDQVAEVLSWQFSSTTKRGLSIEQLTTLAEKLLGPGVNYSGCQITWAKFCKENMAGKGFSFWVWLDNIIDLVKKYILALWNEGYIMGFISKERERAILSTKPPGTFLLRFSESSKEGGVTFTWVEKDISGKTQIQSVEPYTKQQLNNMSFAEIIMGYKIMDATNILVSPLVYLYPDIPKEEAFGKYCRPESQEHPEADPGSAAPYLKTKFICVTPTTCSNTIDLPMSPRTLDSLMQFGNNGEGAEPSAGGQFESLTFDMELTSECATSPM
Method: Binding reactions contained 0.9 μg poly(dI-dC). Competition assays were performed by adding 100× excess cold SIE oligonucleotide (lane C) and non-specific competitor (lane M: FIRE; 5′-[sequence]-3′). The DNA-protein complexes were subjected to electrophoresis and resolved on a 5% non-denaturing polyacrylamide gel (30% acrylamide/Bis solution, Bio-Rad) in 0.5% TBE buffer containing 2.5% glycerol (pH 7.8) at 4° C. for 2 h. Once dried, the radioactive signal of the gel was visualized by exposure to Fuji medical X-ray film.
Binding reactions contained 0.9 μg poly(dI-dC). Competition assays were performed by adding 100× excess cold SIE oligonucleotide (lane C) and non-specific competitor (lane M; FIRE; 5′-[sequence]-3′). The DNA-protein complexes were subjected to electrophoresis and resolved on a 5% non-denaturing polyacrylamide gel (30% acrylamide/Bis solution, Bio-Rad) in 0.5% TBE buffer containing 2.5% glycerol (pH 7.8) at 4° C. for 2 h. Once dried, the radioactive signal of the gel was visualized by exposure to Fuji medical X-ray film.

DU145 cells [5] = assay: Wound healing (scratch) assay; type: cell-based; conditions: 1 μM for 18 h prior to wounding; untreated control closed by 36 h
Method: DU145 cells were seeded in 6-well cell culture plates with Dulbecco's modified Eagle's medium/high glucose containing 10% FBS. After the cells reached 100% confluence, the monolayer was scratched using a […] pipette tip and washed once with PBS, to remove non-adherent cells. […] After drug incubation and wound induction, the medium was replaced with fresh drug-free medium and cells were observed under the microscope at the denoted time points.

| Molecule | IC50 (B16 (melanoma) cells; Mus musculus, B16, 72 h, read-out: IC50 (μM) B16, 72 h exposure, MTT, mean of three independent experiments) [µM] | combination index (CI) with cisplatin (DU145 cells [1]; 5 μM IE-8 1 h then cisplatin 1 h, non-fixed ratio) | IC50 ([2]; Homo sapiens, MDA-MB-435, 48 h exposure) [µM] | IC50 (L1210 (lymphoma) cells; Mus musculus, L1210, 72 h, read-out: IC50 (μM) L1210, 72 h exposure, MTT, mean of three independent experiments) [µM] | inhibition of IL-6 induced pStat3 (pStat3^Tyr705; A2780-cisplatin resistant cells, 18 h) | pStat3 inhibition after acute treatment (pStat3^Tyr705; DU145, 5 μM, 1 h) | persistence of pStat3 inhibition post treatment (pStat3^Tyr705) | inhibition of Stat3 tyrosine (705) phosphorylation (pStat3) (pStat3^Tyr705) | inhibition of constitutively active Stat3 (pStat3) (pStat3^Tyr705; HCT116-oxaliplatin resistant cells, 18 h) | pStat3 inhibition in 3D spheroids (pStat3^Tyr705; HCT116-oxaliplatin resistant or A2780-cisplatin resistant spheroids) | concentrations at which pSTAT3 is inhibited (pStat3^Tyr705; 18 h) [μM] | solubility at 6 h ([3]; aqueous buffer with 5% DMSO, pH 7.4, aqueous with cosolvent or surfactant or cyclodextrin, kinetic from dmso stock) [µM] | concentration blocking Stat3-DNA binding activity [4] [µM] | time for which full wound closure was prevented (DU145 cells [5]) | IC50 (B16 (melanoma) cells; read-out: IC50 (μM) B16, 72 h exposure, MTT, mean of three independent experiments) [µM] | combination index (CI) with cisplatin (DU145 cells [1]; IE-8 18 h then cisplatin 1 h, fixed ratio 1:50) | IC50 ([2]; 48 h exposure) [µM] | IC50 (L1210 (lymphoma) cells; read-out: IC50 (μM) L1210, 72 h exposure, MTT, mean of three independent experiments) [µM] | Solubility in aqueous buffer ([3]; pH 7.4, room temperature, 5% DMSO, free base) [µM] |
| --- | --- | --- | --- | --- | --- | --- | --- | --- | --- | --- | --- | --- | --- | --- | --- | --- | --- | --- | --- |
| COc1cc(/C=C2\CN(c3ccccc3)C/C(=C\c3cc(OC)c(OC)c(OC)c3)C2=O)cc(OC)c1OC [IE-8, 3,5-Di(3,4,5-trimethoxybenzylidene)-1-phenylpiperidin-4-one] | 0.3 | below 1 | 0.15 | 0.36 | the most potent inhibitor in this series; also recorded: efficiently inhibited | sufficient to inhibit pStat3 | at least 24 h | inhibits pStat3^Tyr705 levels without affecting the total Stat3 levels; also recorded: efficiently inhibited | the most potent among these inhibitors; also recorded: efficiently inhibited the constitutively active Stat3 | inhibition of pStat3; also recorded: efficiently inhibited | > 1 | 200 ± 30 (≈ 106 µg/mL) | ≥ 0.8 | up to 60 h | – | – | – | – | – |
| 3,5-Di(3,4,5-trimethoxybenzylidene)-1-phenylpiperidin-4-one [IE-8] | – | – | – | – | – | – | at least 24 h | efficiently inhibits | – | – | > 1 | – | ≥ 0.8 | up to 60 h | ~0.3 | > 1 | 0.15 | ~0.3 | 200 ± 30 |
